Data on nine compounds can be found in patent US11286234B2, “Phenyl urea derivatives as N-formyl peptide receptor modulators” (Allergan, Inc., priority 2016, dated 2022).

For orientation: EC50 means the concentration at which the effect is half-maximal.

One assay deals with T1, FPR1 (Homo sapiens, UniProt P21462).
T1 construct: expressed in transfected cells
T1 sequence (P21462 1-350): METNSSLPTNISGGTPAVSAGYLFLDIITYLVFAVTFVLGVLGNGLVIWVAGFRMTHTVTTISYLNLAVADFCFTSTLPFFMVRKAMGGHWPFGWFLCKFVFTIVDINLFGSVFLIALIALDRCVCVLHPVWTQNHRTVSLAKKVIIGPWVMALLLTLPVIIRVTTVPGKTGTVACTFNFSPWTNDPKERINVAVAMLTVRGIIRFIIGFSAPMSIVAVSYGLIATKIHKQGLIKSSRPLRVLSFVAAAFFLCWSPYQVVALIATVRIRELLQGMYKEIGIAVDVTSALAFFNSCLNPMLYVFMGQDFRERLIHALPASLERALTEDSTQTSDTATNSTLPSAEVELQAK
The assay can be described thus: Compound-induced calcium activity (FLIPR Tetra) in CHO-Gα16 cells stably expressing FPR1. Format: cell-based. The following applies: for EC50 / Emax: CHO-Gα16 cells stably expressing FPR1; for EC50: calcium activity, tested 0.61 to 10,000 nM, read-out: FPR1 Ga16-CHO EC50; for Emax: efficacy value in brackets, read-out: FPR1 Ga16-CHO (% eff); for Ratio FPR2:FPR1 (EC50): ratio of the EC50 for agonizing FPR2 to the EC50 for agonizing FPR1. As for the experimental part: (§1) CHO-Gα16 cells stably expressing FPR1 or FPR2 were cultured in: Ham's F12 nutrient media, 10% fetal bovine serum, 1% PSA (penicillin, streptomycin, amphotericin B antiobiotic/antimycotic), 400 μg/ml geneticin and 50 μg/ml hygromycin. In general, the day before the experiment, 18,000 cells/well were plated in a 384-well clear bottom poly-D-lysine coated plate. The following day the screening compound-induced calcium activity was assayed on the FLIPR^Tetra. The drug plates were prepared in 384-well microplates using the EP3 and the MultiPROBE robotic liquid handling systems. Compounds were tested at concentrations ranging from 0.61 to 10,000 nM. Results are expressed as EC50 (nM) and efficacy values.

In another assay the target is T2, FPR2 (Homo sapiens, UniProt P25090).
T2 construct: expressed in transfected cells
T2 sequence (P25090 1-351): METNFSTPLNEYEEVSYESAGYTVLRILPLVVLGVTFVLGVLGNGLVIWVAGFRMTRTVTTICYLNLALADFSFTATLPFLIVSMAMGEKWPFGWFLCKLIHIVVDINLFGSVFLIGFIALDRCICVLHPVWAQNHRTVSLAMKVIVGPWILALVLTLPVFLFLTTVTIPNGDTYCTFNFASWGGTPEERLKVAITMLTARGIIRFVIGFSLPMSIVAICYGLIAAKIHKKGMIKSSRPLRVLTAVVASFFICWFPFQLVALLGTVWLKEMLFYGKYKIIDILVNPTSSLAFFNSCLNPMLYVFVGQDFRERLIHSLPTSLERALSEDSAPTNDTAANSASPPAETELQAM
The assay can be described thus: Compound-induced calcium activity (FLIPR Tetra) in CHO-Gα16 cells stably expressing FPR2. Format: cell-based. The following applies: for EC50: calcium activity, tested 0.61 to 10,000 nM, read-out: FPR2 Ga16-CHO EC50; for Emax: efficacy value in brackets, read-out: FPR2 Ga16-CHO (% eff). The procedure: as §1

Molecules are shown by their SMILES.

Turning to `CC(C)CC(CNC(=O)Nc1ccc(Br)cc1)C(=O)NCC(=O)OC(C)(C)C` (stereo not drawn) [Compound 31, t-Butyl ({2-[({[(4 bromophenyl)amino]carbonyl}amino)methyl]-4-methylpentanoyl}amino)acetate], on FPR1, the EC50 came to 552 nM, the Emax came out at 98% and the “Ratio FPR2:FPR1 (EC50)” value is on record as 2.7. On FPR2, the EC50 was found to be 1500 nM and the Emax came to 18%.

Take `CC(C)CC(CNC(=O)Nc1ccc(Br)cc1)C(=O)N(C)CC(=O)OC(C)(C)C` (stereo not drawn) [Compound 32, tert-Butyl 2-(2-((3-(4-bromophenyl)ureido)methyl)-N,4-dimethylpentanamido)acetate]: at FPR1, the EC50 stood at 2510 nM, the Emax was determined as 73% and the “Ratio FPR2:FPR1 (EC50)” value is given as 0.41. Also, at FPR2, the EC50 came to 1030 nM and the Emax was determined as 89%.

`CC(C)CC(CNC(=O)Nc1ccc(Br)cc1)C(=O)NCc1nnn[nH]1` (stereo not drawn) [Compound 33, N-((1H-tetrazol-5-yl)methyl)-2-((3-(4-bromophenyl)ureido)methyl)-4-methylpentanamide]: on FPR1, the EC50 turned out to be 13 nM, the Emax stood at 95% and the “Ratio FPR2:FPR1 (EC50)” value was found to be 10. Besides, at FPR2, the EC50 amounted to 130 nM and the Emax came out at 98%.

For `CC(C)CC(CNC(=O)Nc1ccc(Br)cc1)C(=O)N(C)C` (stereo not drawn) [Compound 34, 2-((3-(4-bromophenyl)ureido)methyl)-N,N,4-trimethylpentanamide], at FPR1, the EC50 was determined as 6320 nM, the Emax amounted to 69% and the “Ratio FPR2:FPR1 (EC50)” value is listed as under 1. Moreover, on FPR2, the EC50 was found to be 314 nM and the Emax was 92%.

For `CC(C)CC(CNC(=O)Nc1ccc(Br)cc1)C(N)=O` (stereo not drawn) [Compound 35, 2-((3-(4-bromophenyl)ureido)methyl)-4-methylpentanamide], on FPR1, the EC50 amounted to 7090 nM, the Emax was 80% and the “Ratio FPR2:FPR1 (EC50)” value is 0.14. Also, on FPR2, the EC50 was determined as 975 nM and the Emax is 95%.

For the compound `CC(C)CC(CNC(=O)Nc1ccc(Br)cc1)C(=O)NCC(=O)O` (stereo not drawn) [Compound 36, ({2-[({[(4-bromophenyl)amino]carbonyl}amino)methyl]-4-methylpentanoyl}amino)acetic acid], on FPR1, the EC50 worked out at 156 nM, the Emax was 95% and the “Ratio FPR2:FPR1 (EC50)” value is recorded as 6.4. Further, at FPR2, the EC50 is 1000 nM and the Emax was found to be 43%.

Turning to `CC(C)CC(CNC(=O)Nc1ccc(Br)cc1)C(=O)N(C)CC(=O)O` (stereo not drawn) [Compound 37, 2-(2-((3-(4-bromophenyl)ureido)methyl)-N,4-dimethylpentanamido)acetic acid], on FPR1, the EC50 was 55 nM, the Emax was determined as 96% and the “Ratio FPR2:FPR1 (EC50)” value was determined as 0.22. Also, on FPR2, the EC50 amounted to 12 nM and the Emax was determined as 104%.

`COC(=O)C(CNC(=O)CNC(=O)Nc1ccc(Br)cc1)CC(C)C` (stereo not drawn) [Compound 38]: at FPR1, the EC50 was determined as 2600 nM, the Emax was 77% and the “Ratio FPR2:FPR1 (EC50)” value was found to be 0.83. In addition, on FPR2, the EC50 came out at 2170 nM and the Emax came out at 80%.

With `CC(C)CC(CNC(=O)CNC(=O)Nc1ccc(Br)cc1)C(=O)O` (stereo not drawn) [Compound 39, 2-((2-(3-(4-Bromophenyl)ureido)acetamido)methyl)-4-methylpentanoic acid], on FPR1, the EC50 is 19 nM, the Emax came to 96% and the “Ratio FPR2:FPR1 (EC50)” value was 88. Also, on FPR2, the EC50 came to 1680 nM and the Emax worked out at 77%.
